Assay results published in US11952375B2, “Crystalline forms of Mnk inhibitors” (eFFECTOR Therapeutics Inc., priority 2018, dated 2024).

Columns and labels:
[1] = Kinetic slurry study of the free base in various solvent systems; XRPD and equilibrium solubilities give relative polymorph stability; assay type: physicochemical; settings: slurries in various solvent systems, temperatures and water amounts; solids isolated at 2, 4, 6, 24, 72 hours
Protocol: For example, the free base of (5) was slurried at ambient temperature in various solvent systems, at various temperatures, with varying amounts of water. In each solvent condition, solids were isolated for XRPD analysis at 2, 4, 6, 24, and 72 hours. Equilibrium solubilities in these solvents were then calculated and used to identify ethanol for the final slurry step. The difference in free energy between solid phases with the same composition (i.e., polymorphs, hydrates, or solvates) is directly proportional to their relative solubilities.

[2] = Solubility noted during palladium scavenging work; assay type: physicochemical; settings: qualitative; precluded use of common solid-supported palladium scavenging agents

thermodynamic stability of polymorph [1]	solubility [2]	Compound
most thermodynamically stable polymorph	–	Cc1cc(Nc2cc(N)ncn2)c(=O)n2c1C(=O)NC21CCCCC1 [Form A, 6′-((6-aminopyrimidin-4-yl)amino)-8′-methyl-2′H-spiro[cyclohexane-1,3′-imidazo[1,5-a]pyridine]-1′,5′-dione]
–	Low	Cc1cc(Nc2cc(N)ncn2)c(=O)n2c1C(=O)NC21CCCCC1 [Compound 5, 6′-((6-aminopyrimidin-4-yl)amino)-8′-methyl-2′H-spiro[cyclohexane-1,3′-imidazo[1,5-a]pyridine]-1′,5′-dione]
